The values below come from ChEMBL document CHEMBL1134112, “[3H]MFZ 2-12: a novel radioligand for the dopamine transporter” (Bioorg Med Chem Lett, 2001).

In this assay the target is Sodium-dependent dopamine transporter (Homo sapiens, UniProt Q01959). Kind of assay: Ability to inhibit human dopamine uptake by the human dopamine transporter in EM4 cells stably infected with Flag HA-hDAT. The class given is functional, cell-based.
Sodium-dependent dopamine transporter, sequence (Q01959 whole entry): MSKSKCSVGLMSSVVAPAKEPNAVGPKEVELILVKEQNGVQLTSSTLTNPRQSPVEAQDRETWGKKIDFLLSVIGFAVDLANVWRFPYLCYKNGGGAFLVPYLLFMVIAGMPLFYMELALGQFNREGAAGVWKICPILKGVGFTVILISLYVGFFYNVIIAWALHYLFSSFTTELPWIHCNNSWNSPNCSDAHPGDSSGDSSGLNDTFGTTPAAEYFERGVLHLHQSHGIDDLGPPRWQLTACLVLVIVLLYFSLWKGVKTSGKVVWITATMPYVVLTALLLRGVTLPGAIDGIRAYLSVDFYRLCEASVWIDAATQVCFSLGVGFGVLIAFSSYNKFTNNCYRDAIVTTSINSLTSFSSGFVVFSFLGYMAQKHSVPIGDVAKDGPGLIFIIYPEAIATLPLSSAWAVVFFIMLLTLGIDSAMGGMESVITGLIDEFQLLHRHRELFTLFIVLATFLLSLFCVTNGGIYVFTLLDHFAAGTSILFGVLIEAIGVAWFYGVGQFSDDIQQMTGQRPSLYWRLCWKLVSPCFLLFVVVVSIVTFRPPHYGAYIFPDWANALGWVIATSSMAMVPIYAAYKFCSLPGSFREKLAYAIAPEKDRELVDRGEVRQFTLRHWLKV

For orientation: IC50 means the point on the concentration scale where inhibition reaches its midpoint. High values mean a need for much substance, low ones inhibition by little substance. `COC(=O)[C@@H]1C2CCC(C[C@@H]1c1ccc(Cl)c(Cl)c1)N2` (some centres not stated) returned an IC50 of 1.4 nM. Then `COC(=O)[C@@H]1C2CCC(C[C@@H]1c1ccc(Cl)c(Cl)c1)N2C` (some centres not stated), with 1.1 nM.
